According to patent publication US6951884B2, “Fluorobenzamides and uses thereof” (Hoffmann-La Roche Inc., priority 2002, dated 2005):
Structures can show the parent of a compound that is named as a salt.

Target: T1, human MAO-B (Homo sapiens, UniProt P27338)
T1 construct: expressed in transfected cells; host or cells: EBNA cells (transient transfection); membranes obtained by homogenisation and centrifugation at 45,000 x g
T1 sequence (P27338 1-520): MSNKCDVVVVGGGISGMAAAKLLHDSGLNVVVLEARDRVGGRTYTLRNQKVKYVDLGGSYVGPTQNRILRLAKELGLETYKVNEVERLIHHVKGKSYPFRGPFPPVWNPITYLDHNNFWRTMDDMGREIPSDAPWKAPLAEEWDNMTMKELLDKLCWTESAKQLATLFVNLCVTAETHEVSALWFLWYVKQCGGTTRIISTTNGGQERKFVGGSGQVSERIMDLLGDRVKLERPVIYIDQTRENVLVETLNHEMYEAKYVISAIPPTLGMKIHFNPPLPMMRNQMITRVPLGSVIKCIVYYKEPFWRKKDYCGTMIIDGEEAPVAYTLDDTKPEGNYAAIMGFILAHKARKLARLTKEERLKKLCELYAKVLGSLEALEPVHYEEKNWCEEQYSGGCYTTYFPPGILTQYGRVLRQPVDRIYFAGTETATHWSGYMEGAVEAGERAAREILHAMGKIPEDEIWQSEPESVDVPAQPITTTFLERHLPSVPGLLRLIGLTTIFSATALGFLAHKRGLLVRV
Experiment: MAO-B enzymatic activity assay (spectrophotometric, tyramine/Amplex Red) on membranes of transfected EBNA cells
Type: biochemical
Conditions: membranes of EBNA cells transfected with human MAO-B cDNA; substrate tyramine; 30 min preincubation at 37° C.; read-out: IC50, MAO-B inhibition
Protocol: The cDNA's encoding human MAO-A and MAO-B were transiently transfected into EBNA cells using the procedure described by E.-J. Schlaeger and K. Christensen (Transient Gene Expression in Mammalian Cells Grown in Serum-free Suspension Culture; Cytotechnology, 15: 1-13, 1998). After transfection, cells were homogeneised by means of a Polytron homogeneiser in 20 mM Tris HCl buffer, pH 8.0, containing 0.5 mM EGTA and 0.5 mM phenylmethanesulfonyl fluoride. Cell membranes were obtained by centrifugation at 45,000×g and, after two rinsing step with 20 mM Tris HCl buffer, pH 8.0, containing 0.5 mM EGTA, membranes were eventually re-suspended in the above buffer and aliquots stored at −80° C. until use.
MAO-A and MAO-B enzymatic activity was assayed in 96-well-plates using a spectrophotometric assay adapted from the method described by M. Zhou and N. Panchuk-Voloshina (A One-Step Fluorometric Method for the Continuous Measurement of Monoamine Oxidase Activity, Analytical Biochemistry, 253: 169-174, 1997). Briefly, membrane aliquots were incubated in 0.1 M potassium phosphate buffer, pH 7.4, for 30 min at 37° C. with or without various concentrations of the compounds. After this period, the enzymatic reaction was started by the addition of the MAO substrate tyramine together with 1 U/ml horse-radish peroxidase (Roche Biochemicals) and 80 μM N-acetyl-3,7,-dihydroxyphenoxazine (Amplex Red, Molecular Probes). The samples were further incubated for 30 min at 37° C. in a final volume of 200 μl and absorbance was then determined at a wavelength of 570 nm using a SpectraMax plate reader (Molecular Devices). Background (non-specific) absorbance was determined in the presence of 10 μM clorgyline for MAO-A or 10 μM L-deprenyl for MAO-B.
IC50 values were determined from inhibition curves obtained using nine inhibitor concentrations in duplicate, by fitting data to a four parameter logistic equation using a computer program.

Compound	IC50
C[C@H](NC(=O)c1ccc(OCc2cccc(F)c2)cc1F)C(N)=O [Example 1, (S)-N-(1-Carbamoyl-ethyl)-2-fluoro-4-(3-fluoro-benzyloxy)-benzamide]	5.9 nM
NC(=O)CNC(=O)c1ccc(OCc2cccc(F)c2)cc1F [Example 2, 2-[4-(3-Fluorobenzyloxy)-2-fluoro-benzamido]acetamide]	15.3 nM
COC[C@H](C)NC(=O)c1ccc(OCc2cccc(F)c2)cc1F [Example 4, (S)-2-Fluoro-4-(3-fluoro-benzyloxy)-N-(2-methoxy-1-methyl-ethyl)-benzamide]	8 nM
NC(=O)[C@H](CO)NC(=O)c1ccc(OCc2cccc(F)c2)cc1F [Example 5, (S)-N-(1-Carbamoyl-2-hydroxy-ethyl)-2-fluoro-4-(3-fluoro-benzyloxy)-benzamide]	11.6 nM
COCCNC(=O)c1ccc(OCc2cccc(F)c2)cc1F [Example 6, 2-Fluoro-4-(3-fluoro-benzyloxy)-N-(2-methoxy-ethyl)-benzamide]	19.5 nM
NC(=O)CNC(=O)c1ccc(OCc2ccc(F)cc2)cc1F [Example 10, 2-[4-(4-Fluorobenzyloxy)-2-fluoro-benzamido]acetamide]	11.6 nM
C[C@H](NC(=O)c1ccc(OCc2ccc(F)cc2)cc1F)C(N)=O [Example 11, (S)-N-(1-Carbamoyl-ethyl)-2-fluoro-4-(4-fluoro-benzyloxy)-benzamide]	7 nM
C[C@H](NC(=O)c1ccc(OCc2ccc(C(F)(F)F)cc2)cc1F)C(N)=O [Example 12, (S)-N-(1-Carbamoyl-ethyl)-2-fluoro-4-(4-trifluoromethyl-benzyloxy)-benzamide]	25.7 nM
C[C@H](NC(=O)c1ccc(OCc2ccc(F)cc2)c(F)c1)C(N)=O [Example 18, (S)-N-(1-Carbamoyl-ethyl)-3-fluoro-4-(4-fluoro-benzyloxy)-benzamide]	7 nM
NC(=O)CNC(=O)c1ccc(OCc2ccc(F)cc2)c(F)c1 [Example 19, 2-[4-(4-Fluorobenzyloxy)-3-fluoro-benzamido]acetamide]	3.1 nM
NC(=O)[C@H](CO)NC(=O)c1ccc(OCc2ccc(F)cc2)c(F)c1 [Example 20, (S)-N-(1-Carbamoyl-2-hydroxy-ethyl)-3-fluoro-4-(4-fluoro-benzyloxy)-benzamide]	11 nM
COCCNC(=O)c1ccc(OCc2ccc(F)cc2)c(F)c1 [Example 22, 3-Fluoro-4-(4-fluoro-benzyloxy)-N-(2-methoxy-ethyl)-benzamide]	18 nM
NC(=O)CNC(=O)c1ccc(OCc2cccc(F)c2)c(F)c1 [Example 25, 2-[4-(3-Fluorobenzyloxy)-3-fluoro-benzamido]acetamide]	5 nM
C[C@H](NC(=O)c1ccc(OCc2cccc(F)c2)c(F)c1)C(N)=O [Example 26, (S)-N-(1-Carbamoyl-ethyl)-3-fluoro-4-(3-fluoro-benzyloxy)-benzamide]	19 nM
C[C@@H](NC(=O)c1ccc(OCc2cccc(F)c2)c(F)c1)C(N)=O [Example 27, (R)-N-(1-Carbamoyl-ethyl)-3-fluoro-4-(3-fluoro-benzyloxy)-benzamide]	23 nM
NC(=O)[C@H](CO)NC(=O)c1ccc(OCc2cccc(F)c2)c(F)c1 [Example 28, (S)-N-(1-Carbamoyl-2-hydroxy-ethyl)-3-fluoro-4-(3-fluoro-benzyloxy)-benzamide]	12 nM
NC(=O)CNC(=O)c1ccc(OCc2ccc(C(F)(F)F)cc2)c(F)c1 [Example 31, 2-[4-(4-Trifluoromethylbenzyloxy)-3-fluoro-benzamido]acetamide]	16 nM
NC(=O)[C@H](CO)NC(=O)c1ccc(OCc2ccc(C(F)(F)F)cc2)c(F)c1 [Example 34, (S)-N-(1-Carbamoyl-2-hydroxy-ethyl)-3-fluoro-4-(4-trifluoromethyl-benzyloxy)-benzamide]	25 nM
NCCNC(=O)c1ccc(OCc2ccc(C(F)(F)F)cc2)c(F)c1 [Example 36, N-(2-Amino-ethyl)-3-fluoro-4-(4-trifluoromethyl-benzyloxy)-benzamide 1:1 hydrochloride]	19 nM
C[C@H](NC(=O)c1c(F)cc(OCc2ccc(F)cc2)cc1F)C(N)=O [Example 37, (S)-N-(1-Carbamoyl-ethyl)-2,6-difluoro-4-(4-fluoro-benzyloxy)-benzamide]	22 nM
NC(=O)CNC(=O)c1c(F)cc(OCc2ccc(F)cc2)cc1F [Example 39, N-Carbamoylmethyl-2,6-difluoro-4-(4-fluoro-benzyloxy)-benzamide]	27 nM
COCCNC(=O)c1c(F)cc(OCc2ccc(F)cc2)cc1F [Example 41, 2,6-Difluoro-4-(4-fluoro-benzyloxy)-N-(2-methoxy-ethyl)-benzamide]	13 nM
C[C@@H](CO)NC(=O)c1c(F)cc(OCc2ccc(F)cc2)cc1F [Example 45, (S)-2,6-Difluoro-4-(4-fluoro-benzyloxy)-N-(2-hydroxy-1-methyl-ethyl)-benzamide]	23 nM
COCCNC(=O)c1c(F)cc(OCc2cccc(F)c2)cc1F [Example 51, 2,6-Difluoro-4-(3-fluoro-benzyloxy)-N-(2-methoxy-ethyl)-benzamide]	24 nM
